These are literature values, as cited in patent US20210319872A1, “DRUG AND DEVICE COMBINATION PRODUCTS WITH IMPROVED SAFETY AND EFFICACY PROFILES” (priority 2016, published 2021).

Each structure is given as a SMILES string. Like-named read-outs stand apart in the source and are kept apart here.

For `COCCc1ccc(OCC(O)CNC(C)C)cc1` (centres unmarked) [Metoprolol (Lopressor, Toprol XL)], for the setting “in vivo”, the Bradyarrhythmia result is listed as “Cardiovascular: Bradyarrhythmia (3%), Cold extremities (1%),”; the Bronchospasm result was “Respiratory: Bronchospasm (1%)”; the Cold extremities entry is recorded as “Cardiovascular: Bradyarrhythmia (3%), Cold extremities (1%),”; the “Common side effects, listed without incidence” value is on record as “Neurologic: Dizziness (10%), Fatigue (10%), Headache”. Also, where the note is “in vivo”, the Constipation entry is reported as “Gastrointestinal: Constipation (1%), Diarrhea (5%), Indigestion”; the Depression result is listed as “Psychiatric: Depression (5%)”; the Diarrhea result is listed as “Gastrointestinal: Constipation (1%), Diarrhea (5%), Indigestion”; the Dizziness entry was “Neurologic: Dizziness (10%), Fatigue (10%), Headache”. Also, under “in vivo”, the Dyspnea result is “Respiratory: Dyspnea (3%), Wheezing (1%)”; the Fatigue entry was “Neurologic: Dizziness (10%), Fatigue (10%), Headache”; the Heart failure result is on record as “Heart failure (1%), Hypotension (1%)”; the Hypotension result is listed as “Heart failure (1%), Hypotension (1%)”. Further, under “in vivo”, the Indigestion result is reported as “(1%), Nausea (1%)”; the Nausea result is given as “(1%), Nausea (1%)”; the Pruritus result is given as “Dermatologic: Pruritus (5%), Rash (5%)”; the Rash result was “Dermatologic: Pruritus (5%), Rash (5%)”. The Wheezing entry (in vivo) was “Respiratory: Dyspnea (3%), Wheezing (1%)”.

Take `Nc1cc(N2CCCCC2)nc(N)[n+]1[O-]` [Minoxidil]: for the setting “in vivo”, the “Body fluid retention (incidence)” value is listed as “Endocrine metabolic: Body fluid retention (7%), Hypernatremia”; the “Electrocardiogram abnormal (incidence)” value was “abnormal (60%), Pericardial effusion (3%), Pericarditis,”; the “Pericardial effusion (incidence)” value is “abnormal (60%), Pericardial effusion (3%), Pericarditis,”.

For the molecule `CN1CCN2c3ncccc3Cc3ccccc3C2C1` (centres unmarked) [Mirtazepine (Remeron)], for the setting “in vivo”, the ALT/SGPT level raised entry is listed as “Hepatic: ALT/SGPT level raised (2%)”; the Asthenia entry was “Neurologic: Asthenia (8%), Dizziness (7%), Somnolence (54%)”; the Cirrhosis of liver result is on record as “Hepatic: Cirrhosis of liver (less than 0.1%)”; the Constipation entry is “Gastrointestinal: Constipation (13%), Xerostomia (25%)”. Moreover, for the setting “in vivo”, the Disturbance in thinking result was “Psychiatric: Disturbance in thinking (3%)”; the Dizziness result is recorded as “Neurologic: Asthenia (8%), Dizziness (7%), Somnolence (54%)”; the Grand mal seizure result was “Neurologic: Grand mal seizure (less than 0.1%), Status epilepticus”; the Increased appetite result is “Endocrine metabolic: Increased appetite (17%), Serum triglycerides”. Under “in vivo”, the Serum triglycerides raised result is reported as “raised (increases to 500 mg/dL or greater: 6%), Weight gain (body”; the Somnolence result is on record as “Neurologic: Asthenia (8%), Dizziness (7%), Somnolence (54%)”; the Weight gain result is given as “weight increase of 7% or greater: adults 7.5%; pediatrics 49%)”; the Xerostomia result is “Gastrointestinal: Constipation (13%), Xerostomia (25%)”.

For the molecule `CCOC(=O)[C@H](CCc1ccccc1)N[C@@H](C)C(=O)N1Cc2cc(OC)c(OC)cc2C[C@H]1C(=O)O` [Moexipril (Univasc)], for the setting “in vivo”, the “Common side effects, listed without incidence” value is “Other: Influenza-like symptoms”; the Cough entry was “Respiratory: Cough (6.1%)”; the Diarrhea entry is reported as “Gastrointestinal: Diarrhea (3.1%)”; the Dizziness entry was “Neurologic: Dizziness (4.3%)”.

For the molecule `CC(C)(C)NCC(O)COc1cccc2c1CC(O)C(O)C2` (centres unmarked) [Nadolol (Corgard)], where the note is “in vivo”, the Bradyarrhythmia result is on record as “Cardiovascular: Bradyarrhythmia (2%)”; the Cardiac dysrhythmia result was “Cardiovascular: Atrioventricular block, Cardiac dysrhythmia (1%),”; the Dizziness result is given as “Neurologic: Dizziness (2%)”; the Fatigue entry is “Other: Fatigue (2%)”. For the setting “in vivo”, the Heart failure result is reported as “Heart failure (1%)” and the “Serious side effects, listed without incidence or only as rare” value was “Cardiovascular: Atrioventricular block, Cardiac dysrhythmia (1%),”.

With `CCCC(C)C1(CC)C(=O)NC(=O)NC1=O` (centres unmarked) [Nembutal (pentobarbital)], for the setting “in vivo”, the Agitation result is “Psychiatric: Agitation (less than 1%)”; the Apnea entry was “Respiratory: Apnea (less than 1%), Hypoventilation (less than 1%)”; the Confusion result is reported as “Neurologic: Confusion (less than 1%), Dizziness (less than 1%),”; the Dizziness result is on record as “Neurologic: Confusion (less than 1%), Dizziness (less than 1%),”. Where the note is “in vivo”, the Hypoventilation result is “Respiratory: Apnea (less than 1%), Hypoventilation (less than 1%)”; the Injury of liver entry is listed as “Hepatic: Injury of liver (less than 1%)”; the Megaloblastic anemia result is on record as “Hematologic: Megaloblastic anemia (less than 1%)”; the Somnolence result is recorded as “Somnolence (1% to 3%)”. In addition, the Stevens-Johnson syndrome result (in vivo) is given as “Dermatologic: Stevens-Johnson syndrome (less than 1%)”.

Regarding `CNC(=O)c1cc(Oc2ccc(NC(=O)Nc3ccc(Cl)c(C(F)(F)F)c3)cc2)ccn1` [Nexavar], under “hepatocellular carcinoma”, the Abdominal pain is on record as 31%; the Acral erythema entry is reported as “Dermatologic: Acral erythema (hepatocellular carcinoma, 21%;”; the Alopecia was 14%; the Hypoalbuminemia was 59%. Further, under “hepatocellular carcinoma”, the Hypocalcemia is 27%; the Lymphocytopenia entry is listed as “hepatocellular carcinoma, 47%), Thrombocytopenia (renal cell”; the Thrombocytopenia is given as 46%; the Weight decreased result was “decreased (hepatocellular carcinoma, 30%; renal cell carcinoma,”. Moreover, where the note is “in vivo”, the Congestive heart failure entry is listed as “Cardiovascular: Congestive heart failure (1.9%), Hypertension,”; the Hepatitis is on record as under 0.1%; the “Hypertension, All grades” value is listed as “Cardiovascular: Hypertension, All grades (19.1%)”; the “Hypertension, Grade 3 or 4” value is listed as 4.3%. Further, for the setting “in vivo”, the Infectious disease result is “Immunologic: Infectious disease (10% or greater)”, the Pain is at least 10%, the “Prolonged QT interval” value was “(Less than 0.1%)” and the Rash is given as at most 35%. Further, for the setting “listed without frequency”, the “Common side effect, Dermatologic” value was “Peeling of skin”; the “Serious side effect, Dermatologic” value is reported as “Stevens-Johnson syndrome”; the “Serious side effect, Gastrointestinal” value was “Gastrointestinal: Gastrointestinal hemorrhage, Gastrointestinal”; the “Serious side effect, Respiratory” value was “Respiratory tract hemorrhage”. Under “renal cell carcinoma”, the Abdominal pain entry is recorded as “Gastrointestinal: Abdominal pain (renal cell carcinoma, 11%;”; the Acral erythema is 30%; the Alopecia is recorded as 27%; the Hemorrhage result is on record as “Hematologic: Hemorrhage (renal cell carcinoma, 15.3%; thyroid”. Also, for the setting “renal cell carcinoma”, the Hypocalcemia is 12%; the Lymphocytopenia result is given as “Hematologic: Lymphocytopenia (renal cell carcinoma, 23%;”; the Thrombocytopenia is given as 12%; the Weight decreased is 10%. Moreover, under “thyroid carcinoma”, the “ALT/SGPT level raised, Grade 3 or higher” value is reported as “carcinoma, 4%), AST/SGOT level raised, Grade 3 or 4 (thyroid”; the “ALT/SGPT level raised, all grades” value is 59%), AST/SGOT level raised, All grades (thyroid carcinoma,; the “AST/SGOT level raised, All grades” value was 54%); the “AST/SGOT level raised, Grade 3 or 4” value is 2%. Under “thyroid carcinoma”, the Abdominal pain is listed as 20%, the Acral erythema is recorded as 69%, the Alopecia is given as 67% and the Decrease in appetite was 30%. In addition, for the setting “thyroid carcinoma”, the Hemorrhage result is on record as “carcinoma, 17.4%)”; the Hypocalcemia was 36%; the “Raised TSH level” value is recorded as 41%; the “Squamous cell carcinoma of skin” value is 3%. The Weight decreased (thyroid carcinoma) is 49%.

`COC(=O)C1=C(C)NC(C)=C(C(=O)OC)C1c1ccccc1[N+](=O)[O-]` [Nifedipine (Adalat, Procardia)]: under “in vivo”, the Dizziness entry is “Neurologic: Dizziness (4% to 10%), Headache (19% to 23%)”; the Flushing result was “Dermatologic: Flushing (4% to 25%)”; the Headache result is recorded as “Neurologic: Dizziness (4% to 10%), Headache (19% to 23%)”; the Hypotension result was “Cardiovascular: Hypotension (up to 5%), Palpitations (up to 7%),”. Besides, for the setting “in vivo”, the Myocardial infarction entry is “Cardiovascular: Myocardial infarction (up to 4%), Ventricular”; the Nausea result is listed as “Gastrointestinal: Nausea (up to 10%)”; the Palpitations result is “Cardiovascular: Hypotension (up to 5%), Palpitations (up to 7%),”; the Peripheral edema result is “Peripheral edema (7% to 29%)”. For the same molecule, the Ventricular arrhythmia entry (in vivo) was “arrhythmia (less than 0.5%)”.

As for `COCCOC(=O)C1=C(C)NC(C)=C(C(=O)OC(C)C)C1c1cccc([N+](=O)[O-])c1` (centres unmarked) [Nimodipine (Nimotop)], for the setting “in vivo”, the Congestive heart failure entry was “Cardiovascular: Congestive heart failure (less than 1%)”; the Diarrhea result is “Gastrointestinal: Diarrhea (up to 4.2%), Nausea (0.6% to 1.4%)”; the Disseminated intravascular coagulation result was “(less than 1%), Hematoma (less than 1%)”; the Gastrointestinal hemorrhage result is listed as “Gastrointestinal: Gastrointestinal hemorrhage (less than 1%)”. For the setting “in vivo”, the Headache result is “Neurologic: Headache (up to 4.1%)”; the Hematoma result is recorded as “(less than 1%), Hematoma (less than 1%)”; the Hypotension result is recorded as “Cardiovascular: Hypotension (up to 8.1%)”; the Nausea entry was “Gastrointestinal: Diarrhea (up to 4.2%), Nausea (0.6% to 1.4%)”. Further, under “in vivo”, the “Serious side effects, listed without incidence or only as rare” value was “Hematologic: Bleeding, Disseminated intravascular coagulation”.

Turning to `COC(=O)C1=C(C)NC(C)=C(C(=O)OCC(C)C)C1c1ccccc1[N+](=O)[O-]` (centres unmarked) [Nisoldipine (Sular)], under “in vivo”, the Dizziness result was “Neurologic: Dizziness (5%), Headache (22%)”; the Headache result is given as “Neurologic: Dizziness (5%), Headache (22%)”; the Palpitations result is listed as “Cardiovascular: Palpitations (3%), Peripheral edema (22%),”; the Peripheral edema entry is “Cardiovascular: Palpitations (3%), Peripheral edema (22%),”. Also, for the setting “in vivo”, the Pharyngitis entry was “Respiratory: Pharyngitis (5%), Sinusitis”; the “Serious side effects, listed without incidence or only as rare” value is given as “Cardiovascular: Myocardial infarction”; the Vasodilatation result is recorded as “Vasodilatation (4%)”.

Regarding `O=[N+]([O-])OCC(CO[N+](=O)[O-])O[N+](=O)[O-]` [Nitrates (Nitroglycerin)], where the note is “in vivo”, the “Common side effect listed (incidence not given)” value was “Dermatologic: Flushing”; the “Dizziness (incidence)” value was “Neurologic: Dizziness (5%), Headache (63% to 64%),”; the “Headache (incidence)” value is given as “Neurologic: Dizziness (5%), Headache (63% to 64%),”; the “Hypotension (incidence)” value is on record as “Cardiovascular: Hypotension (4%)”. Moreover, for the setting “in vivo”, the “Lightheadedness (incidence)” value is on record as “Lightheadedness (6%)”.
